Test results from publication PMC12140386, “Diallyl Trisulfide From Garlic Regulates RAB18 Phase Separation to Inhibit Lipophagy and Induce Cuproptosis in Hepatic Stellate Cells for Antifibrotic Effects” (Advanced Science, 2025).

Assays:
[1] = target: T1, purified RAB18 protein (GFP‐RAB18) (Homo sapiens, UniProt Q9NP72); assay: FRAP of RAB18 droplets (also AFM); type: binding; conditions: 10 µM DATs; 50 µM protein; 50 mM HEPES pH 7.4, 150 mM NaCl; no added CaCl2
T1 construct: GFP-fusion RAB18, expressed in E. coli BL21 (DE3), Ni-NTA purified
T1 sequence (Q9NP72 whole entry, the tested form may be a part): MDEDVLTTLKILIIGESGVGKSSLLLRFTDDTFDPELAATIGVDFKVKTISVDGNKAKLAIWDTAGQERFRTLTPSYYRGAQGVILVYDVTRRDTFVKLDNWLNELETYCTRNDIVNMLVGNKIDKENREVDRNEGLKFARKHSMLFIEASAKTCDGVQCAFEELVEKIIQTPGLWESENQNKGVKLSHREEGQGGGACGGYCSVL

[2] = target: T2, RAB18 protein in LX2 cells (Homo sapiens, UniProt Q9NP72); assay: cellular thermal shift assay; type: cell-based; conditions: 10 µM DATs, 24 h
T2 construct: endogenous RAB18 in human hepatic stellate cell line LX2 (CETSA)
T2 sequence (Q9NP72 1-203): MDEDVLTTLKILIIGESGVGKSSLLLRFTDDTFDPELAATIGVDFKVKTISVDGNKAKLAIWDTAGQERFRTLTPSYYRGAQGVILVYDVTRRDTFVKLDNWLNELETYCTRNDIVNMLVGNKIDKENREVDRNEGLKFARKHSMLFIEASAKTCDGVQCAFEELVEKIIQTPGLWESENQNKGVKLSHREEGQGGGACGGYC

- FRAP recovery percentage [1]: ~ ≈80%
SMILES: C=CCSSSCC=C [DATs, Diallyl trisulfides]
- CETSA [2]: DATs exhibit a strong affinity for RAB18, effectively binding to and stabilizing the conformation of RAB18
